1 compound from ChEMBL document CHEMBL5321196, “Fluorescent and theranostic probes for imaging nicotinamide phosphoribosyl transferase (NAMPT)” (Eur J Med Chem, 2023) can be followed below.

The structures appear in SMILES notation. Where only a bound is given, the exact number is not on record here.

Test [1] concerns the target T1, Nicotinamide phosphoribosyltransferase (Homo sapiens, UniProt P43490). In words: Inhibition of NAMPT in human A2780 cells measured at 6 hrs.
Test [2] concerns the target T1, Nicotinamide phosphoribosyltransferase. In words: Inhibition of NAMPT in human A2780 cells measured at 48 hrs.
Test [3] has the same target. Nature of the test: Inhibition of NAMPT in human A2780 cells measured at 24 hrs.

T1 sequence (P43490 whole entry): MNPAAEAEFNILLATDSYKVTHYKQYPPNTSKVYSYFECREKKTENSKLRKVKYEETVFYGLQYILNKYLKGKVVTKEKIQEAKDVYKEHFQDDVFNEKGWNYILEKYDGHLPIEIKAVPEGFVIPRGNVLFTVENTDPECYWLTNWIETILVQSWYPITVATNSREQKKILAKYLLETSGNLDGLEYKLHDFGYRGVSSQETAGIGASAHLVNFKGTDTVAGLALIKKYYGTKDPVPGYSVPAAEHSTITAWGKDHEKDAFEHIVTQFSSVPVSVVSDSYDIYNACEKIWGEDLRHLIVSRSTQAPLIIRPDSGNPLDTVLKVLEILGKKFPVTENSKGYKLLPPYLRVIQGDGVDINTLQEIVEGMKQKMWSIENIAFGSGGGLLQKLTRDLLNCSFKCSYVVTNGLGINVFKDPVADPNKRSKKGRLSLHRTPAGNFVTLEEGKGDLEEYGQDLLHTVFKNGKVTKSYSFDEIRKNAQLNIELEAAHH

As to `O=S(=O)(c1ccc(NC(=S)NCc2cccnc2)cc1)N1CCNCC1`, the 50% inhibitory concentration (IC50) is over 10 µM in test [1], 4.05 µM in test [2] and 7.18 µM in test [3].
